Results on 24 molecules are retold here after ChEMBL document CHEMBL2311464, “Potent inhibitors of CDK5 derived from roscovitine: synthesis, biological evaluation and molecular modelling” (Bioorg Med Chem Lett, 2013).

Assay [1] concerns the target Cyclin-dependent kinase 2/cyclin A (Homo sapiens, UniProt P24941). Briefly: Inhibition of recombinant human CDK2/cyclin A after 30 mins by scintillation counting. The assay is classed as protein-complex assay.
The next assay can be described thus: cells. The note with it: Homo sapiens, SH-SY5Y, 48 h.
In assay [2] the test system is SH-SY5Y. Briefly: Ratio of DRF53 IC50 to compound IC50 for human SH-SY5Y cells after 48 hrs by MTS assay. The format is functional.
For assay [3], the system named is SH-SY5Y. Briefly: Ratio of roscovitine IC50 to compound IC50 for human SH-SY5Y cells after 48 hrs by MTS assay. The format is functional.
The target of assay [4] is Dual specificity tyrosine-phosphorylation-regulated kinase 1A (Homo sapiens, UniProt Q13627). Briefly: Inhibition of recombinant GST-fused human DYRK1A expressed in Escherichia coli using KKISGRLSPIMTEQ as substrate.
Assay [5] has as its target Cyclin-dependent kinase 5/CDK5 activator 1 (Homo sapiens, UniProt Q00535). Briefly: Inhibition of recombinant human CDK5/p25 after 30 mins by scintillation counting. The assay is classed as protein-complex assay.
Assay [6] in a line: Inhibition of porcine brain CK1 delta/epsilon using RRKHAAIGpSAYSITA as substrate measured after 30 mins by scintillation counting. Details: species or system Sus scrofa.
Assay [7] deals with Glycogen synthase kinase-3 (Sus scrofa, UniProt B2LUN4+I6LNT8). Briefly: Inhibition of porcine GSK-3alpha/beta using YRRAAVPPSPSLSRHSSPHQSpEDEEE as substrate measured after 30 mins by scintillation counting.
Another assay is filed under the species Sus scrofa. Briefly: Inhibition of porcine brain CK1 delta/epsilon using RRKHAAIGpSAYSITA as substrate at 0.1 uM measured after 30 mins by scintillation counting.
The target in assay [8] is Cyclin-dependent kinase 1/cyclin B1 (Homo sapiens, UniProt P06493). Briefly: Inhibition of CDK2/cyclin B (unknown origin) after 30 mins by scintillation counting.
Cyclin-dependent kinase 1/cyclin B1, sequence (P06493 whole entry): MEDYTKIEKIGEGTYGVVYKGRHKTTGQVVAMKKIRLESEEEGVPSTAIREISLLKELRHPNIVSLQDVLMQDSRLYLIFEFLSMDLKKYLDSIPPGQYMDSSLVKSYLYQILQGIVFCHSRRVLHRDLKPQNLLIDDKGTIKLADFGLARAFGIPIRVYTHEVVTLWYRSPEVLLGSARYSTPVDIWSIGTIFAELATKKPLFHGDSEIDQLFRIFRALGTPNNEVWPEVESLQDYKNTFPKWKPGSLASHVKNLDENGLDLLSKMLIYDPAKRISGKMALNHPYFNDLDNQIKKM
Cyclin-dependent kinase 1/cyclin B1, sequence (P14635 whole entry, further chain): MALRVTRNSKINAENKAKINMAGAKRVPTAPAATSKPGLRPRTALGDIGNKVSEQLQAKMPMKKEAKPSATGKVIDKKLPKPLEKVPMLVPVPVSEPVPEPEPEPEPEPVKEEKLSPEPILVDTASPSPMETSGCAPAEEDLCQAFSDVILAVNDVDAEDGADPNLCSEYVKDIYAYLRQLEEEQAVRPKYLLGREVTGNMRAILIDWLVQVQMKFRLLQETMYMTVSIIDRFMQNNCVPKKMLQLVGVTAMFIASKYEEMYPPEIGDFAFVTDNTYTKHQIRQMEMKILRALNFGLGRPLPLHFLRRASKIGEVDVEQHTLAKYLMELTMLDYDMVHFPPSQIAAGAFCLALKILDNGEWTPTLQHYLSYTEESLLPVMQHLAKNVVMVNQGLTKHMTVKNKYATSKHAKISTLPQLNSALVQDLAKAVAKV

Cyclin-dependent kinase 5/CDK5 activator 1, sequence (Q00535 whole entry): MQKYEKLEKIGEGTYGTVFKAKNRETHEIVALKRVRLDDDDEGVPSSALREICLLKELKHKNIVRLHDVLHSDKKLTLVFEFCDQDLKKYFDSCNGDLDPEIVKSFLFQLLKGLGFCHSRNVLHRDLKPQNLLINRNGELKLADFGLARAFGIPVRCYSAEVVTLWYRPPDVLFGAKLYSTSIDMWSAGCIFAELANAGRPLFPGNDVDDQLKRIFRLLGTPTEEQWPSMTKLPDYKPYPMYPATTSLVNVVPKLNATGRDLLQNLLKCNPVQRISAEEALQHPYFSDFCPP
Cyclin-dependent kinase 5/CDK5 activator 1, sequence (Q15078 whole entry, further chain): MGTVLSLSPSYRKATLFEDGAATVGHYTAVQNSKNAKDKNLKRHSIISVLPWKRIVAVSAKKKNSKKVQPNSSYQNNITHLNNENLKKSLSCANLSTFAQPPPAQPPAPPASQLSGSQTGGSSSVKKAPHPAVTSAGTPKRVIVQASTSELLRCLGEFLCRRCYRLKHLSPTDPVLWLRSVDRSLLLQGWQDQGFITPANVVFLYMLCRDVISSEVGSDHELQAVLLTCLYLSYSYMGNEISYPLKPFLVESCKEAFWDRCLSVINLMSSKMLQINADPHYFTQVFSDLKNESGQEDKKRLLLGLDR
Description for cells: Cytotoxicity against human SH-SY5Y cells after 48 hrs by MTS assay

`CC(C)n1cnc2c(Nc3ccncn3)nc(Cl)nc21`: the IC50 in assay [1] is 13000 nM; in the assay “cells” it was 1800 nM; in assay [4] it was more than 10000 nM; in assay [5], more than 10000 nM; in assay [6] it was 8000 nM; in assay [7] it was more than 10000 nM. Moreover, the “Ratio IC50” value with SH-SY5Y [2] and with SH-SY5Y [3] was 5 throughout.
In the assay listed under Sus scrofa, `CC(C)[C@H](CO)Nc1nc(Nc2cccc(Cl)c2)c2ncn(C(C)C)c2n1` yielded an inhibition of 100%.
Consider `CC(C)n1cnc2c(Nc3cccnc3)nc(Cl)nc21`, for which the IC50 in assay [1] was 680 nM; in the assay “cells”, 1800 nM; in assay [5], 1100 nM; in assay [6], 2100 nM; in [7], more than 10000 nM.
In the case of `CC(C)[C@H](CO)Nc1nc(Nc2ccnnc2)c2ncn(C(C)C)c2n1`, the IC50 worked out at 28 nM in [1]; 1800 nM in “cells”; 41 nM in assay [5]; 800 nM in [6]; 6000 nM in assay [7].
Consider `CC(C)[C@H](CO)Nc1nc(Nc2ccncc2)c2ncn(C(C)C)c2n1`, for which the IC50 in [1] turned out to be 20 nM; in “cells”, 1800 nM; in assay [5], 21 nM; in [6], 1800 nM; in assay [7], 12000 nM.
As for `CC(C)n1cnc2c(Nc3cncnc3)nc(Cl)nc21`, the IC50 was 180 nM in assay [1]; 1800 nM in the assay “cells”; 2800 nM in [5]; 2300 nM in assay [6]; more than 10000 nM in [7].
Regarding `CC[C@H](CO)Nc1nc(Nc2cccnc2)c2ncn(C(C)C)c2n1`, the IC50 in [1] was found to be 50 nM; in “cells”, 1800 nM; in [5] it was 25 nM; in [6], 1000 nM; in assay [7] it was 10000 nM.
`CC(C)n1cnc2c(Nc3ncccn3)nc(Cl)nc21`: the IC50 was more than 10000 nM in assay [1]; 1800 nM in the assay “cells”; more than 10000 nM in [4]; more than 10000 nM in [5]; 8000 nM in assay [6]; more than 10000 nM in [7]. Moreover, the “Ratio IC50” value in the assay on SH-SY5Y [2] and in the assay with SH-SY5Y [3] was 5 in each case.
For the molecule `CC(C)n1cnc2c(Nc3cnccn3)nc(Cl)nc21`, the IC50 in [1] is 3100 nM; in the assay “cells” it was 1800 nM; in assay [5], 12000 nM; in assay [6] it was 7000 nM; in assay [7], more than 10000 nM.
Consider `CC(C)[C@@H](CO)Nc1nc(Nc2cncnc2)c2ncn(C(C)C)c2n1`, for which the IC50 came out at 110 nM in assay [1]; 1800 nM in “cells”; 370 nM in assay [5]; 2000 nM in [6]; 16000 nM in assay [7].
For `CC[C@@H](CO)Nc1nc(Nc2ccnnc2)c2ncn(C(C)C)c2n1`, the concentration for half-maximal inhibition (IC50) in [1] stood at 29 nM; in the assay “cells”, 1800 nM; in assay [5], 42 nM; in assay [6] it was 1000 nM; in assay [7], 7300 nM.
As for `CC(C)[C@H](CO)Nc1nc(Nc2ccncn2)c2ncn(C(C)C)c2n1`, the IC50 is 330 nM in [1]; 1800 nM in “cells”; 730 nM in [5]; 2800 nM in [6]; more than 10000 nM in assay [7].
Take `CC[C@H](CO)Nc1nc(Nc2cccc(-c3ccccn3)c2)c2ncn(C(C)C)c2n1`: the IC50 in assay [5] amounted to 80 nM; in assay [6], 14 nM; in assay [8], 220 nM.
With `CC[C@H](CO)Nc1nc(Nc2ccccn2)c2ncn(C(C)C)c2n1`, the half-inhibitory concentration (IC50) was found to be 1000 nM in assay [1]; 1800 nM in “cells”; 2300 nM in [5]; 6200 nM in [6]; 33000 nM in [7].
As for `CC[C@@H](CO)Nc1nc(Nc2ccccn2)c2ncn(C(C)C)c2n1`, the IC50 is 530 nM in [1]; 1800 nM in the assay “cells”; 4100 nM in assay [5]; 12000 nM in assay [6]; 21000 nM in [7].
For the molecule `CC(C)[C@@H](CO)Nc1nc(Nc2ccnnc2)c2ncn(C(C)C)c2n1`, the IC50 in assay [1] was found to be 120 nM; in “cells”, 1800 nM; in assay [5], 230 nM; in assay [6], 1900 nM; in [7], 4300 nM.
Consider `CC(C)n1cnc2c(Nc3ccnnc3)nc(Cl)nc21`, for which the IC50 is 1600 nM in assay [1]; 1800 nM in the assay “cells”; 3000 nM in [5]; 1100 nM in assay [6]; more than 10000 nM in assay [7].
Turning to `CC[C@H](CO)Nc1nc(Nc2ccnnc2)c2ncn(C(C)C)c2n1`, the IC50 amounted to 72 nM in assay [1]; 1800 nM in the assay “cells”; 60 nM in [5]; 500 nM in assay [6]; 13000 nM in assay [7].
For `CC(C)[C@H](CO)Nc1nc(Nc2cccnc2)c2ncn(C(C)C)c2n1` the same measures were 18 nM, 1800 nM, 22 nM, 2200 nM and 7300 nM.
For `CC[C@H](CO)Nc1nc(Nc2ccncc2)c2ncn(C(C)C)c2n1`, the IC50 in [1] is 38 nM; in “cells” it was 1800 nM; in [5], 17 nM; in assay [6], 1000 nM; in assay [7] it was more than 10000 nM.
The like results for `CC(C)[C@@H](CO)Nc1nc(Nc2ccncn2)c2ncn(C(C)C)c2n1` were, in that order, 790 nM, 1800 nM, 3200 nM, 4900 nM and 22000 nM.
With `CC(C)[C@@H](CO)Nc1nc(Nc2cccnc2)c2ncn(C(C)C)c2n1`, the IC50 in [1] was 120 nM; in “cells”, 1800 nM; in assay [5] it was 300 nM; in assay [6], 2700 nM; in assay [7], more than 10000 nM.
For `CC(C)[C@@H](CO)Nc1nc(Nc2ncccn2)c2ncn(C(C)C)c2n1`, the IC50 in assay [1] is 9000 nM; in “cells”, 1800 nM; in assay [5], 10000 nM; in [6], more than 10000 nM; in [7], more than 10000 nM.
As for `CC[C@@H](CO)Nc1nc(Nc2ccncc2)c2ncn(C(C)C)c2n1`, the IC50 in [1] is 50 nM; in the assay “cells” it was 1800 nM; in assay [5], 50 nM; in assay [6] it was more than 1000 nM; in assay [7], 6000 nM.
